Source: patent publication US20230079819A1, “COMPOUNDS AND USES THEREOF” (Foghorn Therapeutics Inc., priority 2019, published 2023)
Like-named read-outs stand apart in the source and are kept apart here.

Tests used:
BRG-1 = biological target: T1, BRG-1 (Homo sapiens, UniProt P51532); assay: ATPase catalytic activity of BRG-1, ADP-Glo in vitro biochemical assay; details: ATPase catalytic activity, 30 nM BRG-1, 400 μM ATP
T1 construct: made in house; host or cells: High Five insect cells

BRM = biological target: T2, BRM (Homo sapiens, UniProt P51531); assay: ATPase catalytic activity of BRM, ADP-Glo in vitro biochemical assay; details: ATPase catalytic activity, 30 nM BRM, 400 μM ATP
T2 construct: made in house; host or cells: High Five insect cells
T2 sequence (P51531 whole entry): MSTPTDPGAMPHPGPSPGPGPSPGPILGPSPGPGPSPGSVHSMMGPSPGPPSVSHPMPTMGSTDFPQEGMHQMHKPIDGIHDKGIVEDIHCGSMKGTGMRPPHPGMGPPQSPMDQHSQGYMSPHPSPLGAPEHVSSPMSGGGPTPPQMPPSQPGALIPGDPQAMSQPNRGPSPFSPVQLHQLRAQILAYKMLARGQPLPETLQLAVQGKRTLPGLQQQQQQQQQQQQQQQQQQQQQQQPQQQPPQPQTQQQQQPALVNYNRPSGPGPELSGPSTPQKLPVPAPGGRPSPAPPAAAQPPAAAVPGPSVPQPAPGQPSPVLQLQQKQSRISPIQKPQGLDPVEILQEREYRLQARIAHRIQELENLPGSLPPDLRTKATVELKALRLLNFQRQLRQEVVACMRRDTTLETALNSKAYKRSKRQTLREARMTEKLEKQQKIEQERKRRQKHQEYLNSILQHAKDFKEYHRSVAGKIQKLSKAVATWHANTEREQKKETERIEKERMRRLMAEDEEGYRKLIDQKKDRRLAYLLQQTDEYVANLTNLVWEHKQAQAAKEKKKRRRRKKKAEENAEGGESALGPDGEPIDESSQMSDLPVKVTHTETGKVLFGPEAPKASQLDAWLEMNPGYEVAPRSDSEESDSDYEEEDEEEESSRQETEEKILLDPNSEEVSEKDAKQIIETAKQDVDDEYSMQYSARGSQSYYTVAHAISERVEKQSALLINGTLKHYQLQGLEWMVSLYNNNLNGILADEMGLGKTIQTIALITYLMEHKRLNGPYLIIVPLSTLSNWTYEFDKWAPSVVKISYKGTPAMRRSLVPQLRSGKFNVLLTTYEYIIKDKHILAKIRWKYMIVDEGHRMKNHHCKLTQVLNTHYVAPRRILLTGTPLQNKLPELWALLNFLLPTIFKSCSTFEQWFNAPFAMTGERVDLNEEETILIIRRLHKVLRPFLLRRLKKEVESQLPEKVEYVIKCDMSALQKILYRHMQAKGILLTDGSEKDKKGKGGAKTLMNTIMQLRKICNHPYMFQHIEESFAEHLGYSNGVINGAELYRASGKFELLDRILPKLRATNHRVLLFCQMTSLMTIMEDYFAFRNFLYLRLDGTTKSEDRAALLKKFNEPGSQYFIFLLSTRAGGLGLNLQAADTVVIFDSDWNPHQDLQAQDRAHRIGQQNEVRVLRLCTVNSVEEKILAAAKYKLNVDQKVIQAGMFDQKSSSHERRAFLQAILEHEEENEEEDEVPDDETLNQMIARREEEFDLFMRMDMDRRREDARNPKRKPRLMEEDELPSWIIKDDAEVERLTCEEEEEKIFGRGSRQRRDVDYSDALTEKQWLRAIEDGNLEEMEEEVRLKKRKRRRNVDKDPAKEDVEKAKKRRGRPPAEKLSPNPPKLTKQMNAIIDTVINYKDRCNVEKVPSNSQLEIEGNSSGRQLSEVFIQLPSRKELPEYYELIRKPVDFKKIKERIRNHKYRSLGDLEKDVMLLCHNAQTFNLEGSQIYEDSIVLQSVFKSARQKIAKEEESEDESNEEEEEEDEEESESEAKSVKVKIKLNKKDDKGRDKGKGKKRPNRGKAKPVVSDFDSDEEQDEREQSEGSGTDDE

T1 sequence (P51532 whole entry): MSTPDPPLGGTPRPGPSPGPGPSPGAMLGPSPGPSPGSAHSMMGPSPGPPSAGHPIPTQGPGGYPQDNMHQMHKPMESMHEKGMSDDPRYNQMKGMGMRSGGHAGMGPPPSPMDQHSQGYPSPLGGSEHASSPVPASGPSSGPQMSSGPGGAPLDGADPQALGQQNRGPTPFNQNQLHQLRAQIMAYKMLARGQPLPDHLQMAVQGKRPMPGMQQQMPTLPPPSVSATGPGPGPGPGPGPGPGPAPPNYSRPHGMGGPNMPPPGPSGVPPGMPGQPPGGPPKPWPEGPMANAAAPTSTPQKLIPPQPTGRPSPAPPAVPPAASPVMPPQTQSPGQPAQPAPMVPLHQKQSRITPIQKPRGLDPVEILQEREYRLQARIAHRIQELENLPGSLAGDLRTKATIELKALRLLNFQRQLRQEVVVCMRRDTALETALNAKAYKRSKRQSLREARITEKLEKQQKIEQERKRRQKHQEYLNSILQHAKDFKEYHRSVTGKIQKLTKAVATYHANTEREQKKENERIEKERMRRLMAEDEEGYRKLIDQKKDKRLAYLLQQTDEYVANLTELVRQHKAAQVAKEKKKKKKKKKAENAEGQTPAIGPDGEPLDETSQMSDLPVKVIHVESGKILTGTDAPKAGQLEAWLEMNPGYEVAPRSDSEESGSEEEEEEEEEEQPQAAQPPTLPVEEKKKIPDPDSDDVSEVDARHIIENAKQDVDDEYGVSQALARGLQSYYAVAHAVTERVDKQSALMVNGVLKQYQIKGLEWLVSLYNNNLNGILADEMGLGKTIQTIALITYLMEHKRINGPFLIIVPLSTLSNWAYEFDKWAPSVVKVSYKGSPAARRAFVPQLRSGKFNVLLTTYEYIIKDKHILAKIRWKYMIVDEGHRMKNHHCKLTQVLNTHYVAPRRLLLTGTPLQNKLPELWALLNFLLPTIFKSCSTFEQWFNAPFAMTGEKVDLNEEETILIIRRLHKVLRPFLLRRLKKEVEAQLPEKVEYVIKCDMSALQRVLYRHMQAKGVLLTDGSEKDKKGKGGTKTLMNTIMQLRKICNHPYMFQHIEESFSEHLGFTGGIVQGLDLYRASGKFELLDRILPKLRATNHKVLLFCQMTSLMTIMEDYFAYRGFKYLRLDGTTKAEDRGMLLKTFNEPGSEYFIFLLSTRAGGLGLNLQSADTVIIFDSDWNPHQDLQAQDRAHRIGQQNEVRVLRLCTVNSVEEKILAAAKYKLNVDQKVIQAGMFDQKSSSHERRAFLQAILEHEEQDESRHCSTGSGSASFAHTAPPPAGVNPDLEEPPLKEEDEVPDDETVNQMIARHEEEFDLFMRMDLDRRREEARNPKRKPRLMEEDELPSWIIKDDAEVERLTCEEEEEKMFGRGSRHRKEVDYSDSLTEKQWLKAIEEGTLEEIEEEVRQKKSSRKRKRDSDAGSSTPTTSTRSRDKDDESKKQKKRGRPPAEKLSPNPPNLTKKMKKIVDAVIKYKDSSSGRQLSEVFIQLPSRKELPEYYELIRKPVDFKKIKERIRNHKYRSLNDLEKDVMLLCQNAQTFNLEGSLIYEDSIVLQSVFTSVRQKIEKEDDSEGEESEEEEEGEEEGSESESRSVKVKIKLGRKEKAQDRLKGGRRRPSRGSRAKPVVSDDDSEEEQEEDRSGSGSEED

With `CO[C@@H]1CN(c2cccc(-c3csc(NC(=O)CNC(=O)c4ccn(S(C)(=O)=O)c4)n3)c2)CC[C@@H]1O` (racemic) [Compound 158] the IC50 (BRG-1; read-out: BRG1 IP50 (μM)*) was > 0.01 µM and the IC50 (BRM; read-out: BRM IP50 (μM)*) was > 0.01 µM.
For `C[C@H]1C[C@H](C)CN(c2cccc(-c3csc(NC(=O)CNC(=O)c4ccn(S(C)(=O)=O)c4)n3)c2)C1` (racemic) [Compound 187], the IC50 (BRG-1; read-out: BRG1 IP50 (μM)*) was > 0.01 µM and the IC50 (BRM; read-out: BRM IP50 (μM)*) was > 0.01 µM.
For `CO[C@@H]1CN(c2cccc(-c3csc(NC(=O)CNC(=O)c4ccn(S(C)(=O)=O)c4)n3)c2)C[C@H]1OC` (racemic) [Compound 198], the IC50 (BRG-1; read-out: BRG1 IP50 (μM)*) was > 0.01 µM and the IC50 (BRM; read-out: BRM IP50 (μM)*) was > 0.01 µM.
With `CO[C@H]1CN(c2cccc(-c3csc(NC(=O)CNC(=O)c4ccn(C(C)(C)C)c4)n3)n2)CC[C@@H]1O` (racemic) [Compound 310] the IC50 (BRG-1; read-out: BRG1 IP50 (μM)*) was > 0.1 µM and the IC50 (BRM; read-out: BRM IP50 (μM)*) was > 0.01 µM.
For `C[C@@H]1CC(c2cccc(-c3csc(NC(=O)CNC(=O)c4ccn(S(C)(=O)=O)c4)n3)n2)=C[C@H](C)O1` (racemic) [Compound 350, N-(2-((4-(6-((cis)-2,6-dimethyl-3,6-dihydro-2H-pyran-4-yl)pyridin-2-yl)thiazol-2-yl)amino)-2-oxoethyl)-1-(methylsulfonyl)-1H-pyrrole-3-carboxamide], the IC50 (BRG-1; read-out: BRG1 IP50 (μM)*) was < 0.01 µM and the IC50 (BRM; read-out: BRM IP50 (μM)*) was < 0.01 µM.
For `C[C@@H]1CC(c2cccc(-c3csc(NC(=O)CNC(=O)c4ccn(S(C)(=O)=O)c4)n3)c2)=C[C@H](C)O1` (racemic) [Compound 391], the IC50 (BRG-1; read-out: BRG1 IP50) was < 0.01 µM and the IC50 (BRM; read-out: BRM IP50) was < 0.01 µM.
`CS(=O)(=O)n1ccc(C(=O)NCC(=O)Nc2nc(-c3cccc([C@@H]4CCCCO4)c3)cs2)c1` (racemic) [Compound 392] was tested, and the IC50 (BRG-1; read-out: BRG1 IP50) was > 0.01 µM and the IC50 (BRM; read-out: BRM IP50) was > 0.01 µM.
With `CS(=O)(=O)n1ccc(C(=O)NCC(=O)Nc2nc(-c3cccc(N4C[C@H]5C[C@@H]4C[C@H]5O)c3)cs2)c1` (racemic) [Compound 468] the IC50 (BRG-1; read-out: BRG1 IP50) was > 0.1 µM and the IC50 (BRM; read-out: BRM IP50) was > 0.1 µM.
For `CS(=O)(=O)n1ccc(C(=O)NCC(=O)Nc2nc(-c3cccc(N4C[C@H]5C[C@@H]4C[C@@H]5O)c3)cs2)c1` (racemic) [Compound 500], the IC50 (BRG-1; read-out: BRG1 IP50) was > 0.1 µM and the IC50 (BRM; read-out: BRM IP50) was > 0.01 µM.
`C[C@@H]1CO[C@@H]2CN(c3cccc(-c4csc(NC(=O)CNC(=O)c5ccn(C(C)(C)C)c5)n4)n3)C[C@H]12` (racemic) [Compound 649] was tested, and the IC50 (BRG-1; read-out: BRG1 IP50) was > 0.01 µM and the IC50 (BRM; read-out: BRM IP50) was > 0.01 µM.
With `CC(C)(C)n1ccc(C(=O)NCC(=O)Nc2nc(-c3cccc(N4CC[C@@H]5CCO[C@H]5C4)n3)cs2)c1` (racemic) [Compound 650] the IC50 (BRG-1; read-out: BRG1 IP50) was > 0.1 µM and the IC50 (BRM; read-out: BRM IP50) was > 0.01 µM.
With `C[C@@H]1CCN(c2cccc(-c3csc(NC(=O)CNC(=O)c4ccn(C(C)(C)C)c4)n3)n2)C[C@H]1F` (racemic) [Compound 702, 1-tert-butyl-N-[2-[[4-[6-[(3S,4R)-3-fluoro-4-methyl-1-piperidyl]-2-pyridyl]thiazol-2-yl]amino]-2-oxo-ethyl]pyrrole-3-carboxamide] the IC50 (BRG-1; read-out: BRG1 IP50) was > 0.1 µM and the IC50 (BRM; read-out: BRM IP50) was > 0.01 µM.
With `CC(C)(C)n1ccc(C(=O)NCC(=O)Nc2nc(-c3cccc(N4C[C@H]5CC(F)(F)[C@H]5C4)n3)cs2)c1` (racemic) [Compound 703] the IC50 (BRG-1; read-out: BRG1 IP50) was > 0.1 µM and the IC50 (BRM; read-out: BRM IP50) was > 0.1 µM.
With `C[C@@H]1CN(c2cccc(-c3csc(NC(=O)CNC(=O)c4ccn(C(C)(C)C)c4)n3)n2)C[C@@H]1F` (racemic) [Compound 724] the IC50 (BRG-1; read-out: BRG1 IP50) was > 0.01 µM and the IC50 (BRM; read-out: BRM IP50) was > 0.01 µM.
`C[C@@H]1CN(c2cccc(-c3csc(NC(=O)CNC(=O)c4ccn([C@]5(C)CCOC5)c4)n3)n2)C[C@H](C)O1` (single isomer, unassigned) [Compound 490] was tested, and the IC50 (BRG-1; read-out: BRG1 IP50) was > 0.1 µM and the IC50 (BRM; read-out: BRM IP50) was > 0.01 µM.
`C[C@@H]1CN(c2cccc(-c3csc(NC(=O)CNC(=O)c4ccn([C@@]5(C)CCOC5)c4)n3)n2)C[C@H](C)O1` (single isomer, unassigned) [Compound 491] was tested, and the IC50 (BRG-1; read-out: BRG1 IP50) was > 0.01 µM and the IC50 (BRM; read-out: BRM IP50) was > 0.01 µM.
In the case of `CN(C)Cc1cc(-c2cccc(-c3csc(NC(=O)CNC(=O)c4ccn(S(C)(=O)=O)c4)n3)c2)ccn1` [Compound 1, N-(2-((4-(3-(2-((dimethylamino)methyl)pyridin-4-yl)phenyl)thiazol-2-yl)amino)-2-oxoethyl)-1-(methylsulfonyl)-1H-pyrrole-3-carboxamide], the IC50 (BRG-1; read-out: BRG1 IP50 (μM)*) is reported as < 0.01 µM and the IC50 (BRM; read-out: BRM IP50 (μM)*) is reported as < 0.01 µM.
With `CC(C)n1ccc(C(=O)NCC(=O)Nc2nc(-c3cccc(-c4ccn(C)n4)c3)cs2)c1` [Compound 2, 1-isopropyl-N-(2-((4-(3-(1-methyl-1H-pyrazol-3-yl)phenyl)thiazol-2-yl)amino)-2-oxoethyl)-1H-pyrrole-3-carboxamide] the IC50 (BRG-1; read-out: BRG1 IP50 (μM)*) was > 0.01 µM and the IC50 (BRM; read-out: BRM IP50 (μM)*) was > 0.01 µM.
For `CC(C)(C)n1cnc(C(=O)NCC(=O)Nc2nc(-c3cccc(C#N)c3)cs2)c1` [Compound 3, 1-(tert-butyl)-N-(2-((4-(3-cyanophenyl)thiazol-2-yl)amino)-2-oxoethyl)-1H-imidazole-4-carboxamide], the IC50 (BRG-1; read-out: BRG1 IP50 (μM)*) was > 1 µM and the IC50 (BRM; read-out: BRM IP50 (μM)*) was > 1 µM.
`CS(=O)(=O)n1ccc(C(=O)NCC(=O)Nc2nc(-c3cnn(-c4ccncc4)c3)cs2)c1` [Compound 6, 1-(methylsulfonyl)-N-(2-oxo-2-((4-(1-(pyridin-4-yl)-1H-pyrazol-4-yl)thiazol-2-yl)amino)ethyl)-1H-pyrrole-3-carboxamide] was tested, and the IC50 (BRG-1; read-out: BRG1 IP50 (μM)*) was > 0.1 µM and the IC50 (BRM; read-out: BRM IP50 (μM)*) was > 0.1 µM.
For `CN1CCc2ccc(-c3csc(NC(=O)CNC(=O)c4ccn(C(C)(C)C)c4)n3)cc2C1=O` [Compound 7, 1-(tert-butyl)-N-(2-((4-(2-methyl-1-oxo-1,2,3,4-tetrahydroisoquinolin-7-yl)thiazol-2-yl)amino)-2-oxoethyl)-1H-pyrrole-3-carboxamide], the IC50 (BRG-1; read-out: BRG1 IP50 (μM)*) was > 0.01 µM and the IC50 (BRM; read-out: BRM IP50 (μM)*) was > 0.01 µM.
For `CC(C)(O)Cn1ccc(-c2cccc(-c3csc(NC(=O)CNC(=O)c4ccn(C(C)(C)C)c4)n3)c2)n1` [Compound 8, 1-(tert-butyl)-N-(2-((4-(3-(1-(2-hydroxy-2-methylpropyl)-1H-pyrazol-3-yl)phenyl)thiazol-2-yl)amino)-2-oxoethyl)-1H-pyrrole-3-carboxamide], the IC50 (BRG-1; read-out: BRG1 IP50 (μM)*) was > 0.01 µM and the IC50 (BRM; read-out: BRM IP50 (μM)*) was > 0.01 µM.
With `CS(=O)(=O)n1ccc(C(=O)NCC(=O)Nc2nc(-c3cccc(-c4ccnc(N)c4)c3)cs2)c1` [Compound 9, N-(2-((4-(3-(2-aminopyridin-4-yl)phenyl)thiazol-2-yl)amino)-2-oxoethyl)-1-(methylsulfonyl)-1H-pyrrole-3-carboxamide] the IC50 (BRG-1; read-out: BRG1 IP50 (μM)*) was < 0.01 µM and the IC50 (BRM; read-out: BRM IP50 (μM)*) was < 0.01 µM.
`C[C@@H]1CN(c2cccc(-c3csc(NC(=O)CNC(=O)c4ccn(S(C)(=O)=O)c4)n3)c2)C[C@H](C)O1` [Compound 10] was tested, and the IC50 (BRG-1; read-out: BRG1 IP50 (μM)*) was < 0.01 µM and the IC50 (BRM; read-out: BRM IP50 (μM)*) was < 0.01 µM.
With `CO[C@H]1CCCN(c2cccc(-c3csc(NC(=O)CNC(=O)c4ccn(S(C)(=O)=O)c4)n3)c2)C1` [Compound 11, (S)—N-(2-((4-(3-(3-methoxypiperidin-1-yl)phenyl)thiazol-2-yl)amino)-2-oxoethyl)-1-(methylsulfonyl)-1H-pyrrole-3-carboxamide] the IC50 (BRG-1; read-out: BRG1 IP50 (μM)*) was > 0.01 µM and the IC50 (BRM; read-out: BRM IP50 (μM)*) was > 0.01 µM.
With `Cn1c(=O)ccc2ccc(-c3csc(NC(=O)CNC(=O)c4ccn(S(C)(=O)=O)c4)n3)cc21` [Compound 12, N-(2-((4-(1-methyl-2-oxo-1,2-dihydroquinolin-7-yl)thiazol-2-yl)amino)-2-oxoethyl)-1-(methylsulfonyl)-1H-pyrrole-3-carboxamide] the IC50 (BRG-1; read-out: BRG1 IP50 (μM)*) was > 0.01 µM and the IC50 (BRM; read-out: BRM IP50 (μM)*) was > 0.01 µM.
For `CN(C)C(=O)CN(C)c1cc(-c2cccc(-c3csc(NC(=O)CNC(=O)c4ccn(S(C)(=O)=O)c4)n3)c2)ccn1` [Compound 13, N-(2-((4-(3-(2-((2-(dimethylamino)-2-oxoethyl)(methyl)amino)pyridin-4-yl)phenyl)thiazol-2-yl)amino)-2-oxoethyl)-1-(methylsulfonyl)-1H-pyrrole-3-carboxamide], the IC50 (BRG-1; read-out: BRG1 IP50 (μM)*) was > 0.01 µM and the IC50 (BRM; read-out: BRM IP50 (μM)*) was > 0.01 µM.
`CS(=O)(=O)n1ccc(C(=O)NCC(=O)Nc2nc(-c3cccc(-c4ccnc(C5(C(=O)O)CC5)c4)c3)cs2)c1` [Compound 14, 1-(4-(3-(2-(2-(1-(methylsulfonyl)-1H-pyrrole-3-carboxamido)acetamido)thiazol-4-yl)phenyl)pyridin-2-yl)cyclopropanecarboxylic acid] was tested, and the IC50 (BRG-1; read-out: BRG1 IP50 (μM)*) was < 0.01 µM and the IC50 (BRM; read-out: BRM IP50 (μM)*) was < 0.01 µM.
In the case of `CN(CC(=O)O)c1cc(-c2cccc(-c3csc(NC(=O)CNC(=O)c4ccn(S(C)(=O)=O)c4)n3)c2)ccn1` [Compound 15, 2-(methyl(4-(3-(2-(2-(1-(methylsulfonyl)-1H-pyrrole-3-carboxamido)acetamido)thiazol-4-yl)phenyl)pyridin-2-yl)amino)acetic acid], the IC50 (BRG-1; read-out: BRG1 IP50 (μM)*) is reported as < 0.01 µM and the IC50 (BRM; read-out: BRM IP50 (μM)*) is reported as < 0.01 µM.
With `CNC(=O)CN(C)c1cc(-c2cccc(-c3csc(NC(=O)CNC(=O)c4ccn(S(C)(=O)=O)c4)n3)c2)ccn1` [Compound 16, N-(2-((4-(3-(2-(methyl(2-(methylamino)-2-oxoethyl)amino)pyridin-4-yl)phenyl)thiazol-2-yl)amino)-2-oxoethyl)-1-(methylsulfonyl)-1H-pyrrole-3-carboxamide] the IC50 (BRG-1; read-out: BRG1 IP50 (μM)*) was < 0.01 µM and the IC50 (BRM; read-out: BRM IP50 (μM)*) was < 0.01 µM.
In the case of `Cc1nc(-c2cccc(-c3csc(NC(=O)CNC(=O)c4ccn(S(C)(=O)=O)c4)n3)c2)c[nH]1` [Compound 17], the IC50 (BRG-1; read-out: BRG1 IP50 (μM)*) is reported as > 0.01 µM and the IC50 (BRM; read-out: BRM IP50 (μM)*) is reported as > 0.01 µM.
For `Cn1cnc(-c2cccc(-c3csc(NC(=O)CNC(=O)c4ccn(S(C)(=O)=O)c4)n3)c2)c1` [Compound 18, N-(2-((4-(3-(1-methyl-1H-imidazol-4-yl)phenyl)thiazol-2-yl)amino)-2-oxoethyl)-1-(methylsulfonyl)-1H-pyrrole-3-carboxamide], the IC50 (BRG-1; read-out: BRG1 IP50 (μM)*) was > 0.01 µM and the IC50 (BRM; read-out: BRM IP50 (μM)*) was > 0.01 µM.
`CN1CCN(c2cc(-c3cccc(-c4csc(NC(=O)CNC(=O)c5ccn(S(C)(=O)=O)c5)n4)c3)ccn2)CC1` [Compound 19, N-(2-((4-(3-(2-(4-methylpiperazin-1-yl)pyridin-4-yl)phenyl)thiazol-2-yl)amino)-2-oxoethyl)-1-(methylsulfonyl)-1H-pyrrole-3-carboxamide] was tested, and the IC50 (BRG-1; read-out: BRG1 IP50 (μM)*) was > 0.01 µM and the IC50 (BRM; read-out: BRM IP50 (μM)*) was > 0.01 µM.
In the case of `CN(C)CCNc1cc(-c2cccc(-c3csc(NC(=O)CNC(=O)c4ccn(S(C)(=O)=O)c4)n3)c2)ccn1` [Compound 20, N-(2-((4-(3-(2-((2-(dimethylamino)ethyl)amino)pyridin-4-yl)phenyl)thiazol-2-yl)amino)-2-oxoethyl)-1-(methylsulfonyl)-1H-pyrrole-3-carboxamide], the IC50 (BRG-1; read-out: BRG1 IP50 (μM)*) is reported as > 0.01 µM and the IC50 (BRM; read-out: BRM IP50 (μM)*) is reported as > 0.01 µM.
